Article PMC7961048, “Hierarchized phosphotarget binding by the seven human 14-3-3 isoforms” (Nature Communications, 2021)
Starred links: 1 amine or outer side, 2 acyl side, 3 side chain; linkers in the order of their positions; H or OH if unused. Non-standard residues stand in square brackets, D forms with d. Residues, ends and D or L forms follow the SMILES beside them. *: point of attachment. X1 = O=C(CCCC[C@@H]1SC[C@@H]2NC(=O)N[C@@H]21)NCCCOCCOCCOCCCN*; pT = C[C@@H](OP(=O)(O)O)[C@H](N)C(=O)O; Suc = O=C(CCC(=O)[*:2])[*:1]

Experiments:
14-3-3η = target: T1, 14-3-3η (Homo sapiens, UniProt Q04917); experiment: biochemical; format: binding
T1 construct: cDNAs encoding other full-length 14-3-3 isoforms β, τ, η, and σ were obtained as codon-optimized; made in house; host or cells: E. coli BL21(DE3)
T1 sequence (Q04917 1-246): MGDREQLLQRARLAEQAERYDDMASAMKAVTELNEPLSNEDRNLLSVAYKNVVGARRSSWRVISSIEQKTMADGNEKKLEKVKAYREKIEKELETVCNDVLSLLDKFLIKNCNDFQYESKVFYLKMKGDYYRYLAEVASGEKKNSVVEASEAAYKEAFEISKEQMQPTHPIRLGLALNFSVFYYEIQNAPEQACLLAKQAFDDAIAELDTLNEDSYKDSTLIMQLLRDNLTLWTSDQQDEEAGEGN

14-3-3γ = target: T2, 14-3-3γ (Homo sapiens, UniProt P61981); experiment: biochemical; format: binding
T2 construct: full-length human 14-3-3 constructs with an N-terminal MBP fusion were used; made in house; host or cells: E. coli BL21(DE3)
T2 sequence (P61981 1-247): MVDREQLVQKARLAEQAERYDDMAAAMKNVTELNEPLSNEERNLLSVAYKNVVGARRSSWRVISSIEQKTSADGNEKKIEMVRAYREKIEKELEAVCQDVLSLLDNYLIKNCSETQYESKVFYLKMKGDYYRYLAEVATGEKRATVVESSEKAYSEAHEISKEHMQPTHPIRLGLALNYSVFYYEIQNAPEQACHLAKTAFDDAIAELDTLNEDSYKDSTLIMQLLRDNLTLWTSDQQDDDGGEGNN
Protocol: FP was measured with a PHERAstar (BMG Labtech, Offenburg, Germany) microplate reader by using 485 ± 20 and 528 ± 20 nm band-pass filters (for excitation and emission, respectively). In direct FP measurements, a dilution series of the 14-3-3 protein was prepared in 96-well plates (96-well skirted PCR plate, 4ti-0740, 4titude, Wotton, UK) in a 20 mM HEPES pH 7.5 buffer containing 150 mM NaCl, 0.5 mM TCEP, 0.01% Tween 20, 50 nM fluorescently labeled fpB6 peptide, and 100 μM FSC, if indicated. The volume of the dilution series was 40 μl, which was later divided into three technical replicates of 10 μl upon transferring to 384-well micro-plates (low binding microplate, 384 well, E18063G5, Greiner Bio-One, Kremsmünster, Austria). In total, polarization of the probe was measured at eight different protein concentrations (whereas one contained no protein and corresponded to the free peptide). In competitive FP measurements, the same buffer was supplemented with the protein to achieve a complex formation of 60–80%, based on the direct titration. Then, this mixture was used for creating a dilution series of the unlabeled competitor (i.e., the studied peptides) and the measurement was carried out identically as in the direct experiment.
All FP experiments were done in triplicates. Analysis of FP experiments were carried out using ProFit, an in-house developed, Python-based fitting program. […]

SMILES	Kd (14-3-3η) [µM]	Kd (14-3-3γ) [µM]
CC(C)C[C@H](NC(=O)[C@H](C)NC(=O)[C@@H](NC(=O)[C@H](CCC(=O)O)NC(=O)[C@H](CCCNC(=N)N)NC(=O)[C@H](CCCNC(=N)N)NC(=O)[C@H](CCCNC(=N)N)NC(=O)[C@H](CO)NC(=O)[C@H](CCCNC(=N)N)NC(=O)[C@H](CO)NC(=O)CCC(=O)NCCCOCCOCCOCCCNC(=O)CCCC[C@@H]1SC[C@@H]2NC(=O)N[C@@H]21)[C@@H](C)OP(=O)(O)O)C(=O)O [pHPV33E6] ({X1-Suc}-SRSRRRE[pT]AL-OH)	1.98	2.2 ± 0.3
CC(C)[C@H](NC(=O)[C@H](C)NC(=O)[C@@H](NC(=O)[C@H](CCC(=O)O)NC(=O)[C@H](CCCNC(=N)N)NC(=O)[C@H](CCCNC(=N)N)NC(=O)[C@@H](NC(=O)[C@@H]1CCCN1C(=O)[C@H](CCCCN)NC(=O)[C@H](CO)NC(=O)CCC(=O)NCCCOCCOCCOCCCNC(=O)CCCC[C@@H]1SC[C@@H]2NC(=O)N[C@@H]21)[C@@H](C)O)[C@@H](C)OP(=O)(O)O)C(=O)O [pHPV35E6E-1A] ({X1-Suc}-SKPTRRE[pT]AV-OH)	12.4	
CC(C)[C@H](NC(=O)[C@H](CCC(=O)O)NC(=O)[C@@H](NC(=O)[C@H](CCC(=O)O)NC(=O)[C@H](CCCNC(=N)N)NC(=O)[C@H](CCCNC(=N)N)NC(=O)[C@H](CCCNC(=N)N)NC(=O)[C@@H]1CCCN1C(=O)[C@H](CCCCN)NC(=O)[C@H](CO)NC(=O)CCC(=O)NCCCOCCOCCOCCCNC(=O)CCCC[C@@H]1SC[C@@H]2NC(=O)N[C@@H]21)[C@@H](C)OP(=O)(O)O)C(=O)O [pHPV35E6T-6R] ({X1-Suc}-SKPRRRE[pT]EV-OH)	85 ± 20.6	
CC(C)[C@H](NC(=O)[C@H](CCC(=O)O)NC(=O)[C@@H](NC(=O)[C@H](CCC(=O)O)NC(=O)[C@H](CCCNC(=N)N)NC(=O)[C@H](CCCNC(=N)N)NC(=O)[C@@H](NC(=O)[C@@H]1CCCN1C(=O)[C@H](CCCCN)NC(=O)[C@H](CO)NC(=O)CCC(=O)NCCCOCCOCCOCCCNC(=O)CCCC[C@@H]1SC[C@@H]2NC(=O)N[C@@H]21)[C@@H](C)O)[C@@H](C)OP(=O)(O)O)C(=O)O [pHPV35E6] ({X1-Suc}-SKPTRRE[pT]EV-OH)	163 ± 19	
